The values below come from article PMC10112710 (Nature, 2022).

Test [1] has as its target T1, Drosophila Sestrin (Drosophila melanogaster, UniProt A0A0B4LGG4).
T1 sequence (A0A0B4LGG4 1-467): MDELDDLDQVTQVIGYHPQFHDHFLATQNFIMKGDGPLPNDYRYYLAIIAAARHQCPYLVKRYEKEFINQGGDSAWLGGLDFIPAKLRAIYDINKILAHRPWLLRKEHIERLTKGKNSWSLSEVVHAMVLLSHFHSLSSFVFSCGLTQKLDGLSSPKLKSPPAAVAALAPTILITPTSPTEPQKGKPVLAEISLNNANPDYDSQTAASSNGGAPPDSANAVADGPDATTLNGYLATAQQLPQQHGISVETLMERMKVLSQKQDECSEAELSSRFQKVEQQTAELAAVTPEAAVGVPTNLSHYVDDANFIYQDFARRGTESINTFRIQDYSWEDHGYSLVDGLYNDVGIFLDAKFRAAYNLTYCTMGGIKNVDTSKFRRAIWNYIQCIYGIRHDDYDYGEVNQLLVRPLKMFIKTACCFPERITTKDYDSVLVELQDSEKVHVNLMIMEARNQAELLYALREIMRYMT
Format: binding. Particulars: pH 7.4, on ice, 1 h; 150 mM KCl, 2.5 mM MgCl2, 0.1% Triton; Kd derived from IC50.

Test [2] addresses T2, Drosophila Sestrin (Drosophila melanogaster, UniProt A0A0B4LGG4, L431E).
T2 sequence (A0A0B4LGG4 1-467 L431E): T1 sequence (A0A0B4LGG4 1-467) with L431E
Put plainly: [3H]-leucine binding on immunopurified HA-tagged Sestrin. Particulars: pH 7.4, on ice, 1 h; labelled compound; no binding detected.

Molecules are shown by their SMILES. Numbering of substitutions follows the chain as printed.

`CC(C)C[C@H](N)C(=O)O` [leucine] had a Kd in test [1] of around 100 µM. In test [2], the does not bind entry was “fly Sestrin L431E does not bind leucine (Fig. 1b)”.

As usually defined, the Kd is the free concentration of one partner at which half of the binding sites on the other are occupied at equilibrium, for simple one-to-one binding. Higher therefore signals a looser complex.
